Results as given in patent US20230255934A1, “NURR1 RECEPTOR MODULATORS AND USES THEREOF” (The Regents of the University of California, priority 2020, published 2023).

How the values were obtained:
[1] = molecular target: T1, full-length Nurr1 (NBRE response element) (Mus musculus, UniProt Q06219); assay: Full-length Nurr1 NBRE luciferase reporter assay in MN9D cells; assay type: cell-based; conditions: 6 h treatment
T1 construct: a cell line derived from dopaminergic neurons which endogenously expresses full length Nurr1 and its target genes; endogenous in cells; host or cells: MN9D TET-ON cells
Description: Luciferase Reporter Assays. These assays were executed using standard protocols. MN9D TET-ON cells (P5) were grown for 60-72 h (see above) before being seeded at 1-10^5 cell/well in 24-well plate in DMEM/F12+5% TET-ON approved FBS 3 h before transfection. Cells were transfected using Lipofectamine 2000 (Invitrogen) and plasmid DNAs according to manufacturer's instructions. Lipofectamine/DNA complexes were prepared in Opti-Mem medium (Gibco) and incubated with cells overnight. The Nurr1-LBD_Gal4-DBD expressing plasmid was prepared by subcloning the Nurr1 LBD fragment into […] plasmid (Clontech) containing GAL4 DBD. The reporter plasmid pGL4.35 (luc2P/9XGAL4 UAS/Hygro) Vector (Promega) contains nine repeats of GAL4 UAS (Upstream Activator Sequence) and drives transcription of the luciferase reporter gene luc2P in response to binding of Nurr-LBD_Gal4-DBD chimeric protein. The pRL-null (Promega) plasmid expressing renilla luciferase was used as an internal control. […] Alternatively, cells were co-transfected with the reporter plasmid NBREx3-POMC-Luc containing three copies of the NBRE sequence ([NT] ID NO:23)) subcloned into the pXP1-luc plasmid containing the minimal (positions -34 to +63) POMC promoter as described previously^7, and the pRL-null plasmid. […] Transfected cells were treated with increasing concentrations of 5-chloroindole or vehicle only for 6 h, after which time the media was aspirated and luciferase activity was measured. Cells from each well were incubated for 15 min with 220 μL/well of Dual-Glo® Luciferase Reagent (Promega) at room temperature upon rotation on the orbital shaker. […] Resulting solutions were transferred to a white opaque 96-well plate (65 μL/well; 3 wells/sample) and firefly luciferase activity was measured using Veritas Microplate Luminometer (Turner BioSystems, Sunnyvale, Calif.). […] Renilla luciferase activity was measured after 20 min of incubation of the plate inside the luminometer. Experimental values are expressed as the average of firefly/renilla luciferase activity±standard deviation (for three independent biological replicates). […]

[2] = molecular target: Nurr1 ligand binding domain (LBD) (Homo sapiens, UniProt P43354); conditions: non-canonical ligand binding pocket, Cys566; cited from earlier work
[3] = test system: th and vmat2 expression; conditions: zebrafish; cited from earlier work

T1 sequence (Q06219 whole entry): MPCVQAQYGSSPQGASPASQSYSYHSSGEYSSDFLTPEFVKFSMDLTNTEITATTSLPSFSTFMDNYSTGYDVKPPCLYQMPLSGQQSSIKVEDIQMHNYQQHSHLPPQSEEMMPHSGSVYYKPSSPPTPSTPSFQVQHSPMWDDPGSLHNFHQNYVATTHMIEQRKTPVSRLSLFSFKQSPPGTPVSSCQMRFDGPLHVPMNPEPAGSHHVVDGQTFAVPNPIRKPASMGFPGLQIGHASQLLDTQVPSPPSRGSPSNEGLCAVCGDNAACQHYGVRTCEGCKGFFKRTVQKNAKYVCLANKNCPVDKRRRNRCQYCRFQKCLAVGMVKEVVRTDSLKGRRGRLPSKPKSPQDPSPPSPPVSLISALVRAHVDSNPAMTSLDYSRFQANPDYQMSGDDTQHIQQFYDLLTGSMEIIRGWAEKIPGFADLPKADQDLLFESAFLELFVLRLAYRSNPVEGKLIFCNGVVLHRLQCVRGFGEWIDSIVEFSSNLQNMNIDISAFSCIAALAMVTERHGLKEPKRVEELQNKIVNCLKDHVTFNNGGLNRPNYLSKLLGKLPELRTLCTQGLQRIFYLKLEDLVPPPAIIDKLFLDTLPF
Nurr1 ligand binding domain (LBD), sequence (P43354 360-595 limits assumed): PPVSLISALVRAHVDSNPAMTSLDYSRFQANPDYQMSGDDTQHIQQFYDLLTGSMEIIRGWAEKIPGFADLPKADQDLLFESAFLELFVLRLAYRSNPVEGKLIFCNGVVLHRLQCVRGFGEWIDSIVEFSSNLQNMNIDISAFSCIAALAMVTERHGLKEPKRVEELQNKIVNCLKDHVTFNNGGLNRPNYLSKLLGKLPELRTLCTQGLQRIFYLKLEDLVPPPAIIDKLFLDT

With `N#Cc1ccc2[nH]ccc2c1` [5-cyanoindole, reference compound] the “Luciferase production, full-length Nurr1 NBRE reporter” value [1] was “perform as expected”.
In the case of `Oc1cc2cc[nH]c2cc1O` [DHI, 5,6-dihydroxyindole], the “Binding to the Nurr1 LBD (in words)” value [2] is listed as “forming a reversible covalent adduct with the side chain of Cys566” and the “Expression of th and vmat2” value [3] is listed as “stimulates the expression of th and vmat2”.
In the case of `CCN(CC)Cc1cc(Nc2ccnc3cc(Cl)ccc23)ccc1O` [amodiaquine, reference compound], the “Luciferase production, full-length Nurr1 NBRE reporter” value [1] was “perform as expected”.
